SMILES strings stand for the structures. Values after ≈ are worked out from the molar mass of the structure shown.

This assay relates to wheat crown rot. The assay is described as follows: indoor toxicity test (growth rate method). Format: cell-based. The settings on record: toxicity to wheat crown rot. The protocol:
The method of combining indoor toxicity test and field experiment is adopted.
First of all, co-toxicity coefficients of the complex pesticide of different proportions to wheat crown rot are obtained through indoor toxicity test (growth rate method); and then, the control effect is determined through field efficacy test, and the formula proportion and optimal application amount of the complex pesticide are determined.

In the case of `C=CCOC(Cn1ccnc1)c1ccc(Cl)cc1Cl` (centres unmarked) [Imazalil (B), Imazalil], the EC50 was found to be 0.175 µg/mL (≈ 0.589 µM).

Compound `OC(Cc1ccccc1Cl)(Cn1nc[nH]c1=S)C1(Cl)CC1` (centres unmarked) [Prothioconazole (A), Prothioconazole] gave an EC50 of 1.37 µg/mL (≈ 3.98 µM).

Broadly, the EC50 is the concentration giving half of the maximal effect.

Values taken from patent publication US20240008491A1, “PESTICIDE COMPOSITION FOR C[…] CROWN ROT AND APPLICATION” (priority 2022, published 2024).
